Reference: the NIST ThermoML archive (doi:10.1021/acs.jced.7b00712)

Details: Brillouin light scattering

CCCCCCCC [octane]
Details	speed of sound [m/s]
573.03 K, 7000 kPa, Liquid	341
573.05 K, 4000 kPa, Fluid (supercritical or subcritical phases)	228.1
573.37 K, 10000 kPa, Liquid	414
573.6 K, 12000 kPa, Liquid	454.4
573.69 K, 3500 kPa, Fluid (supercritical or subcritical phases)	189
573.8 K, 3000 kPa, Fluid (supercritical or subcritical phases)	135.4
573.9 K, 4500 kPa, Fluid (supercritical or subcritical phases)	250.4
575.02 K, 4000 kPa, Fluid (supercritical or subcritical phases)	217.1
575.57 K, 7000 kPa, Liquid	332.6
576.28 K, 10000 kPa, Liquid	408.7
576.53 K, 12000 kPa, Liquid	451.3
577.56 K, 3000 kPa, Fluid (supercritical or subcritical phases)	110.1
577.56 K, 4500 kPa, Fluid (supercritical or subcritical phases)	236.5
577.86 K, 3500 kPa, Fluid (supercritical or subcritical phases)	168.5
578.92 K, 7000 kPa, Liquid	323.1
579.05 K, 4000 kPa, Fluid (supercritical or subcritical phases)	198.3
579.36 K, 10000 kPa, Liquid	400.8
579.57 K, 12000 kPa, Liquid	444.1
582.19 K, 3000 kPa, Fluid (supercritical or subcritical phases)	86.9
582.61 K, 3500 kPa, Fluid (supercritical or subcritical phases)	144.9
583.28 K, 4500 kPa, Fluid (supercritical or subcritical phases)	215.8
583.76 K, 4000 kPa, Fluid (supercritical or subcritical phases)	181
584.07 K, 5000 kPa, Fluid (supercritical or subcritical phases)	239.2
584.52 K, 6000 kPa, Fluid (supercritical or subcritical phases)	280.5
584.97 K, 7000 kPa, Fluid (supercritical or subcritical phases)	314.5
585.27 K, 8000 kPa, Fluid (supercritical or subcritical phases)	351.8
585.51 K, 9000 kPa, Fluid (supercritical or subcritical phases)	367.9
585.79 K, 10000 kPa, Fluid (supercritical or subcritical phases)	392.1
585.88 K, 3000 kPa, Fluid (supercritical or subcritical phases)	88.4
586.85 K, 3500 kPa, Fluid (supercritical or subcritical phases)	124.2
587.72 K, 4500 kPa, Fluid (supercritical or subcritical phases)	200.5
588.01 K, 4000 kPa, Fluid (supercritical or subcritical phases)	166.2
588.39 K, 5000 kPa, Fluid (supercritical or subcritical phases)	226.1
588.83 K, 6000 kPa, Fluid (supercritical or subcritical phases)	270.2
589.14 K, 7000 kPa, Fluid (supercritical or subcritical phases)	302.3
589.41 K, 8000 kPa, Fluid (supercritical or subcritical phases)	337
589.67 K, 9000 kPa, Fluid (supercritical or subcritical phases)	358.4
589.68 K, 3000 kPa, Fluid (supercritical or subcritical phases)	93.7
589.93 K, 10000 kPa, Fluid (supercritical or subcritical phases)	385.1
591.09 K, 3500 kPa, Fluid (supercritical or subcritical phases)	108.6
591.69 K, 4500 kPa, Fluid (supercritical or subcritical phases)	186.7
593.97 K, 5000 kPa, Fluid (supercritical or subcritical phases)	206.7
594.05 K, 4000 kPa, Fluid (supercritical or subcritical phases)	140.2
594.09 K, 6000 kPa, Fluid (supercritical or subcritical phases)	255.1
594.28 K, 7000 kPa, Fluid (supercritical or subcritical phases)	290.8
594.52 K, 8000 kPa, Fluid (supercritical or subcritical phases)	322.3
594.74 K, 9000 kPa, Fluid (supercritical or subcritical phases)	346.5
594.9 K, 3000 kPa, Fluid (supercritical or subcritical phases)	102.1
594.94 K, 10000 kPa, Fluid (supercritical or subcritical phases)	374.1
596.02 K, 3500 kPa, Fluid (supercritical or subcritical phases)	100.7
597.28 K, 4500 kPa, Fluid (supercritical or subcritical phases)	170.5
598.63 K, 4000 kPa, Fluid (supercritical or subcritical phases)	125.5
599.12 K, 3000 kPa, Fluid (supercritical or subcritical phases)	108.9
599.17 K, 5000 kPa, Fluid (supercritical or subcritical phases)	192.7
599.18 K, 6000 kPa, Fluid (supercritical or subcritical phases)	241.2
599.55 K, 7000 kPa, Fluid (supercritical or subcritical phases)	276.6
599.72 K, 8000 kPa, Fluid (supercritical or subcritical phases)	309.6
599.76 K, 3500 kPa, Fluid (supercritical or subcritical phases)	95.6
600 K, 9000 kPa, Fluid (supercritical or subcritical phases)	334
601 K, 10000 kPa, Fluid (supercritical or subcritical phases)	358.1
601.1 K, 4500 kPa, Fluid (supercritical or subcritical phases)	159.7
602.47 K, 4000 kPa, Fluid (supercritical or subcritical phases)	114.3
603.01 K, 5000 kPa, Fluid (supercritical or subcritical phases)	180.4
603.24 K, 6000 kPa, Fluid (supercritical or subcritical phases)	226.2
